In patent US9580444B2, “Polycyclic pyrazolinone derivative and herbicide comprising same as effective component thereof” (priority 2013, dated 2017):

What was measured:
Assay in all cases: Test Example-1: herbicidal effect by a treatment before weeds are generated under submerged conditions
Assay type in all cases: in vivo
Settings in all cases: 500 g a.i/ha, pre-emergence treatment, about 15 days after treatment, score 0-5
[1] = system: Monochoria vaginalis (monochoria)
Experimental: (§1) Using the formulation prepared according to the methods described above, the herbicidal effect of the bicyclic pyrazolinone derivative of the invention according to the methods shown in Test Examples below was examined. The herbicidal effect with respect to the test weeds or the phytotoxicity with respect to the test crops was examined according to the following criteria, and evaluated in six stage scores of 0 to 5.
(§2) A plastic cup of 30 cm^2 was filled with paddy soil, soil puddling was performed, seeds of Echinochloa oryzicola (barnyard grass), Cyperus difformis (smallflower umbrella plant), Monochoria vaginalis (monochoria), Scirpus juncoides (bulrush), and Eleocharis acicularis (needle spikerush), and Lindernia procumbens (common false pimpernel), Rotala indica (indian toothcup), Elatine triandra (waterwort) as other annual broad leaf weeds were seeded therein, and kept in a submerged state. A wettable powder or an emulsifiable concentrate of the compound of the present invention prepared according to Formulation Example was diluted on the weed seeding day, and a submersing treatment was performed so as to be a predetermined dosage. The herbicidal effect with respect to the test weeds about 15 days after the treatment was evaluated according to the evaluation criteria in six stages of 0 to 5 described above.

[2] = system: Eleocharis acicularis (needle spikerush)
Experimental: as §1, §2

[3] = system: other annual broad leaf weeds (Lindernia procumbens, Rotala indica, Elatine triandra)
Experimental: as §1, §2

[4] = system: Scirpus juncoides (bulrush)
Experimental: as §1, §2

[5] = system: Echinochloa oryzicola (barnyard grass)
Experimental: as §1, §2

[6] = system: Cyperus difformis (smallflower umbrella plant)
Experimental: as §1, §2

Row | SMILES | Herbicidal effect Monochoria vaginalis [1] | Herbicidal effect Eleocharis acicularis [2] | Herbicidal effect Broadleaf weed [3] | Herbicidal effect Scirpus juncoides [4] | Herbicidal effect Echinochloa oryzicola [5] | Herbicidal effect Cyperus difformis [6]
1 | O=c1c(-c2ccc(Cl)cc2Cl)c(Cl)n2n1CCCC2 [Example 1-280] | 5 (Herbicidal effect/phytotoxicity was 90% or greater) | 5 (Herbicidal effect/phytotoxicity was 90% or greater) | 5 (Herbicidal effect/phytotoxicity was 90% or greater) | 5 (Herbicidal effect/phytotoxicity was 90% or greater) | 5 (Herbicidal effect/phytotoxicity was 90% or greater) | 5 (Herbicidal effect/phytotoxicity was 90% or greater)
2 | CC(C)(C)OC(=O)COc1cc(-c2c(Cl)n3n(c2=O)CCCC3)c(F)cc1Cl [Example 1-165] | 5 (Herbicidal effect/phytotoxicity was 90% or greater) | 5 (Herbicidal effect/phytotoxicity was 90% or greater) | 5 (Herbicidal effect/phytotoxicity was 90% or greater) | 5 (Herbicidal effect/phytotoxicity was 90% or greater) | 5 (Herbicidal effect/phytotoxicity was 90% or greater) | 5 (Herbicidal effect/phytotoxicity was 90% or greater)
3 | CCCOC(=CC(=O)OC)COc1cc(-c2c(Cl)n3n(c2=O)CCCC3)c(F)cc1Cl (mixture of isomers) [Compound 2-13] | 5 (Herbicidal effect/phytotoxicity was 90% or greater) | 5 (Herbicidal effect/phytotoxicity was 90% or greater) | 5 (Herbicidal effect/phytotoxicity was 90% or greater) | 5 (Herbicidal effect/phytotoxicity was 90% or greater) | 5 (Herbicidal effect/phytotoxicity was 90% or greater) | 5 (Herbicidal effect/phytotoxicity was 90% or greater)
4 | CC1(COc2cc(-c3c(Cl)n4n(c3=O)CCCC4)c(F)cc2Cl)CC(c2ccc(F)cc2)=NO1 (stereo not drawn) [Compound 4-7] | 5 (Herbicidal effect/phytotoxicity was 90% or greater) | 5 (Herbicidal effect/phytotoxicity was 90% or greater) | 5 (Herbicidal effect/phytotoxicity was 90% or greater) | 5 (Herbicidal effect/phytotoxicity was 90% or greater) | 5 (Herbicidal effect/phytotoxicity was 90% or greater) | 5 (Herbicidal effect/phytotoxicity was 90% or greater)
5 | O=c1c(-c2cc(OCC3CCCC3)c(Cl)cc2F)c(Cl)n2n1CCCC2 [Example 1-186] | 5 (Herbicidal effect/phytotoxicity was 90% or greater) | 5 (Herbicidal effect/phytotoxicity was 90% or greater) | 5 (Herbicidal effect/phytotoxicity was 90% or greater) | 5 (Herbicidal effect/phytotoxicity was 90% or greater) | 5 (Herbicidal effect/phytotoxicity was 90% or greater) | 5 (Herbicidal effect/phytotoxicity was 90% or greater)
6 | C=C(C)COc1cc(-c2c(Cl)n3n(c2=O)CCCC3)c(F)cc1F [Example 1-109] | 5 (Herbicidal effect/phytotoxicity was 90% or greater) | 5 (Herbicidal effect/phytotoxicity was 90% or greater) | 5 (Herbicidal effect/phytotoxicity was 90% or greater) | 5 (Herbicidal effect/phytotoxicity was 90% or greater) | 5 (Herbicidal effect/phytotoxicity was 90% or greater) | 5 (Herbicidal effect/phytotoxicity was 90% or greater)
7 | O=c1c(-c2ccc(Cl)cc2F)c(Cl)n2n1CCOCC2 [Example 1-129] | 5 (Herbicidal effect/phytotoxicity was 90% or greater) | 5 (Herbicidal effect/phytotoxicity was 90% or greater) | 5 (Herbicidal effect/phytotoxicity was 90% or greater) | 5 (Herbicidal effect/phytotoxicity was 90% or greater) | 5 (Herbicidal effect/phytotoxicity was 90% or greater) | 5 (Herbicidal effect/phytotoxicity was 90% or greater)
8 | COc1ccc(Oc2cc(-c3c(Cl)n4n(c3=O)CCCC4)c(F)cc2Cl)cc1 [Compound 3-7] | 5 (Herbicidal effect/phytotoxicity was 90% or greater) | 5 (Herbicidal effect/phytotoxicity was 90% or greater) | 5 (Herbicidal effect/phytotoxicity was 90% or greater) | 5 (Herbicidal effect/phytotoxicity was 90% or greater) | 5 (Herbicidal effect/phytotoxicity was 90% or greater) | 5 (Herbicidal effect/phytotoxicity was 90% or greater)
9 | COC(=O)C(C)Oc1cc(-c2c(Cl)n3n(c2=O)CCCC3)c(F)cc1Cl (stereo not drawn) [Example 1-166] | 5 (Herbicidal effect/phytotoxicity was 90% or greater) | 5 (Herbicidal effect/phytotoxicity was 90% or greater) | 5 (Herbicidal effect/phytotoxicity was 90% or greater) | 5 (Herbicidal effect/phytotoxicity was 90% or greater) | 5 (Herbicidal effect/phytotoxicity was 90% or greater) | 5 (Herbicidal effect/phytotoxicity was 90% or greater)
10 | COC(=O)COc1ccccc1Oc1cc(-c2c(Cl)n3n(c2=O)CCCC3)c(F)cc1Cl [Compound 3-16] | 5 (Herbicidal effect/phytotoxicity was 90% or greater) | 5 (Herbicidal effect/phytotoxicity was 90% or greater) | 5 (Herbicidal effect/phytotoxicity was 90% or greater) | 5 (Herbicidal effect/phytotoxicity was 90% or greater) | 5 (Herbicidal effect/phytotoxicity was 90% or greater) | 5 (Herbicidal effect/phytotoxicity was 90% or greater)
11 | CC(C)CCOc1cc(-c2c(Cl)n3n(c2=O)CCCC3)c(F)cc1Cl [Example 1-159] | 5 (Herbicidal effect/phytotoxicity was 90% or greater) | 5 (Herbicidal effect/phytotoxicity was 90% or greater) | 5 (Herbicidal effect/phytotoxicity was 90% or greater) | 5 (Herbicidal effect/phytotoxicity was 90% or greater) | 5 (Herbicidal effect/phytotoxicity was 90% or greater) | 5 (Herbicidal effect/phytotoxicity was 90% or greater)
12 | O=c1c(-c2cc(Oc3ccccc3O)c(Cl)cc2F)c(Cl)n2n1CCCC2 [Compound 3-1] | 5 (Herbicidal effect/phytotoxicity was 90% or greater) | 5 (Herbicidal effect/phytotoxicity was 90% or greater) | 5 (Herbicidal effect/phytotoxicity was 90% or greater) | 5 (Herbicidal effect/phytotoxicity was 90% or greater) | 5 (Herbicidal effect/phytotoxicity was 90% or greater) | 5 (Herbicidal effect/phytotoxicity was 90% or greater)
13 | C=C(C)COc1cc(-c2c(Cl)n3n(c2=O)CCCC3)c(F)cc1F [Example 1-106] | 5 (Herbicidal effect/phytotoxicity was 90% or greater) | 5 (Herbicidal effect/phytotoxicity was 90% or greater) | 5 (Herbicidal effect/phytotoxicity was 90% or greater) | 5 (Herbicidal effect/phytotoxicity was 90% or greater) | 5 (Herbicidal effect/phytotoxicity was 90% or greater) | 5 (Herbicidal effect/phytotoxicity was 90% or greater)
14 | COc1cc(-c2c(Cl)n3n(c2=O)CCCCC3)c(Cl)cc1Cl [Example 1-293] | 5 (Herbicidal effect/phytotoxicity was 90% or greater) | 5 (Herbicidal effect/phytotoxicity was 90% or greater) | 5 (Herbicidal effect/phytotoxicity was 90% or greater) | 5 (Herbicidal effect/phytotoxicity was 90% or greater) | 5 (Herbicidal effect/phytotoxicity was 90% or greater) | 5 (Herbicidal effect/phytotoxicity was 90% or greater)
15 | C=CCOc1ccc(Oc2cc(-c3c(Cl)n4n(c3=O)CCCC4)c(F)cc2Cl)cc1 [Compound 3-29] | 5 (Herbicidal effect/phytotoxicity was 90% or greater) | 5 (Herbicidal effect/phytotoxicity was 90% or greater) | 5 (Herbicidal effect/phytotoxicity was 90% or greater) | 5 (Herbicidal effect/phytotoxicity was 90% or greater) | 5 (Herbicidal effect/phytotoxicity was 90% or greater) | 5 (Herbicidal effect/phytotoxicity was 90% or greater)
